Experimental data as given in the NIST ThermoML archive (doi:10.1016/j.fluid.2005.11.017).
Values joined by “and” are separate entries in the source; they are usually repeats but may differ in a detail not shown here. Equal values may be shown once. ± gives the expanded uncertainty stated by the source.

Details: 313.15 K; Liquid

Row | SMILES | vapor or sublimation pressure
1 | CC(C)CO [2-methyl-1-propanol] | 4.015 ± 0.056 kPa [middle of 4 runs]
2 | c1ccccc1 [benzene] | 24.38 ± 0.18 kPa and 24.36 ± 0.18 kPa
3 | CC(C)OC(C)C [diisopropyl ether] | 37.11 ± 0.27 kPa and 37.09 ± 0.27 kPa and 37.14 ± 0.27 kPa
